Results published in ChEMBL document CHEMBL1909046, “DrugMatrix in vitro pharmacology data”.

How the values were obtained:
Thromboxane-A synthase = target: T1, Thromboxane-A synthase (Homo sapiens, UniProt P24557); assay: biochemical; type: tissue-based, Platelet; conditions: platelet;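 also: enzyme inhibition assay with PGH2 supplied as substrate; in other assays of this panel Not Active means under 50% inhibition at 10 µM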
T1 sequence (P24557 whole entry): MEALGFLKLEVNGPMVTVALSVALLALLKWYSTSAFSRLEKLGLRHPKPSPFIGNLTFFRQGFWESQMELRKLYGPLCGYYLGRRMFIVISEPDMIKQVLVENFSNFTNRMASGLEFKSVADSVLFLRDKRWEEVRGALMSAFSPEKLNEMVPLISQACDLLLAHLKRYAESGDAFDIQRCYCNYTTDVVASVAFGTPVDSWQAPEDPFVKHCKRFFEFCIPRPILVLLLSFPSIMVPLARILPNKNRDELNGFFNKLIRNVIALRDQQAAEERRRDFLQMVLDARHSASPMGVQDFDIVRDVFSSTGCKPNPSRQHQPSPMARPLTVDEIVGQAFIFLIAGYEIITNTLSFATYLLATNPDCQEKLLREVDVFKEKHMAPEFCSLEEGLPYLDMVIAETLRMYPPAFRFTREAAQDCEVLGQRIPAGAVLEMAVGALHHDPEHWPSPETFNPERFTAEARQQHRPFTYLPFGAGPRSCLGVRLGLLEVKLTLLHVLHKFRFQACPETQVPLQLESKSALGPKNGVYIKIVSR

[1] = DRUGMATRIX: Calcium Channel Type L, Phenylalkylamine radioligand binding (ligand: [3H] (-)-Desmethoxyverapamil (D-888)); type: cell membranes, Rattus norvegicus, Wistar, Brain, Membrane; conditions: Not Active = under 50% inhibition at 10 µM
[2] = DRUGMATRIX: Calcium Channel Type L, Dihydropyridine radioligand binding (ligand: [3H] Nitrendipine); type: cell membranes, Rattus norvegicus, Wistar, Cerebral cortex, Membrane; conditions: Not Active = under 50% inhibition at 10 µM
[3] = target: T2, 5-hydroxytryptamine receptor 1A (Rattus norvegicus, UniProt P19327); type: cell membranes, CHO-K1, Membrane; conditions: for Ki: read-out: Ki; as to all read-outs here: in other assays of this panel Not Active means under 50% inhibition at 10 µM
T2 sequence (P19327 whole entry): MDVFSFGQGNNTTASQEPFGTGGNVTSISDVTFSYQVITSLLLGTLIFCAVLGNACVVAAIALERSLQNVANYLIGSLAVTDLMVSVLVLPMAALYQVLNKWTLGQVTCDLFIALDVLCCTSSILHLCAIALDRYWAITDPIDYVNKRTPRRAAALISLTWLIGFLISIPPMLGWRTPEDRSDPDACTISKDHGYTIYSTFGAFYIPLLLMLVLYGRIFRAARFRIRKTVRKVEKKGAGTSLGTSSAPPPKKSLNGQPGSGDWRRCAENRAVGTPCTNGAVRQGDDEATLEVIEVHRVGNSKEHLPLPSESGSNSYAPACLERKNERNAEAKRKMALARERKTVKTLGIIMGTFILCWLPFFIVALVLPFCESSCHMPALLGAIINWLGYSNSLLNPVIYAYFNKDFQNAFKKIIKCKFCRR

[4] = DRUGMATRIX: Tumor Necrosis Factor (TNF), Non-Selective radioligand binding (ligand: [125I] TNF-alpha); type: cell membranes, Membrane; conditions: u-937; Not Active = under 50% inhibition at 10 µM
[5] = target: T3, C-X-C chemokine receptor type 2 (Homo sapiens, UniProt P25025); type: cell membranes, CHO-K1, Membrane; conditions: cho-k1; also: in other assays of this panel Not Active means under 50% inhibition at 10 µM
T3 sequence (P25025 whole entry): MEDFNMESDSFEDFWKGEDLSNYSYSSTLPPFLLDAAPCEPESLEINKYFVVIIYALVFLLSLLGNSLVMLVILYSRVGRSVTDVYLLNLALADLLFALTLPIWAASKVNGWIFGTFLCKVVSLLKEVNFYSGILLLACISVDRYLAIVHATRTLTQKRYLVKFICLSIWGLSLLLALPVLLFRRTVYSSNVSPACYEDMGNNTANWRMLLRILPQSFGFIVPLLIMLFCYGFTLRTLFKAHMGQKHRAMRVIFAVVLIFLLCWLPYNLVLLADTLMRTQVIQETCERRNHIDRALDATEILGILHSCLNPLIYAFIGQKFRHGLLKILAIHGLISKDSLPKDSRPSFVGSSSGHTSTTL

[6] = target: Kappa-type opioid receptor (Homo sapiens, UniProt P41145); assay: DRUGMATRIX: Opiate kappa (OP2, KOP) radioligand binding (ligand: [3H] Diprenorphine); type: cell membranes, HEK293, Membrane; conditions: hek293; Not Active = under 50% inhibition at 10 µM
Kappa-type opioid receptor, sequence (P41145 whole entry): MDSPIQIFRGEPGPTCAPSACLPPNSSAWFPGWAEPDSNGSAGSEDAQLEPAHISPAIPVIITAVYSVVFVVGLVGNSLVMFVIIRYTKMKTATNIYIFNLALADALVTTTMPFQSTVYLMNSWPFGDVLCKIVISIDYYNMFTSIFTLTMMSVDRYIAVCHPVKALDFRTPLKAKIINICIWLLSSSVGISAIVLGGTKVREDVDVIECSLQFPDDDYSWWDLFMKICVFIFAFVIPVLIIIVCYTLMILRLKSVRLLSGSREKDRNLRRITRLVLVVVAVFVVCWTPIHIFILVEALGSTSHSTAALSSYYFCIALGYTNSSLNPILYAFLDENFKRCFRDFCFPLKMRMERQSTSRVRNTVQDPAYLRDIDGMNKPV

Row | Structure (SMILES) | IC50 (Thromboxane-A synthase) | IC50 [1] | Ki [1] | IC50 [2] | Ki [2] | IC50 ([3]; cho-k1) | IC50 [4] | Ki [4] | IC50 [5] | IC50 [6] | IC50 ([1]; read-out: IC50) [nM] | Ki ([1]; read-out: Ki) [nM] | IC50 ([3]; read-out: IC50) [nM] | Ki [3] [nM]
1 | NS(=O)(=O)c1cc(C(=O)O)c(NCc2ccco2)cc1Cl [FUROSEMIDE] | Not Active | Not Active | Not Active | Not Active | Not Active | Not Active | Not Active | Not Active | Not Active | Not Active |  |  |  | 
2 | NC(=O)NC(=O)Cc1ccccc1 [PHENACEMIDE] | Not Active | Not Active | Not Active | Not Active | Not Active | Not Active | Not Active | Not Active | Not Active | Not Active |  |  |  | 
3 | Cc1cc(C(C)(C)C)c(O)c(C)c1CC1=NCCN1 [OXYMETAZOLINE] | Not Active |  |  | Not Active | Not Active |  | Not Active | Not Active | Not Active | Not Active | 2250 | 2180 | 5.61 | 3.21
4 | CC(CN1c2ccccc2Sc2ccccc21)N(C)C (configuration not stated) [PROMETHAZINE] | Not Active |  |  | Not Active | Not Active |  | Not Active | Not Active | Not Active | Not Active | 866 | 842 | 2600 | 1480
5 | NC(N)=Nc1nc(CSCCC(N)=NS(N)(=O)=O)cs1 [FAMOTIDINE] | Not Active | Not Active | Not Active | Not Active | Not Active | Not Active | Not Active | Not Active | Not Active | Not Active |  |  |  | 
6 | C[C@]12CC[C@@H](O)C[C@@H]1CC[C@@H]1[C@@H]2CC[C@]2(C)C(=O)CC[C@@H]12 [ANDROSTERONE] | Not Active | Not Active | Not Active | Not Active | Not Active | Not Active | Not Active | Not Active | Not Active | Not Active |  |  |  | 
7 | CC(=O)[C@]1(O)Cc2c(O)c3c(c(O)c2[C@@H](O[C@H]2C[C@H](N)[C@H](O)[C@H](C)O2)C1)C(=O)c1ccccc1C3=O [IDARUBICIN] | Not Active | Not Active | Not Active | Not Active | Not Active | Not Active | Not Active | Not Active | Not Active | Not Active |  |  |  | 
8 | COC(=O)Nc1nc2ccc(Sc3ccccc3)cc2[nH]1 [FENBENDAZOLE] | Not Active | Not Active | Not Active | Not Active | Not Active | Not Active | Not Active | Not Active | Not Active | Not Active |  |  |  | 
9 | Cc1ccnc2c1NC(=O)c1cccnc1N2C1CC1 [NEVIRAPINE] | Not Active | Not Active | Not Active | Not Active | Not Active | Not Active | Not Active | Not Active | Not Active | Not Active |  |  |  | 
10 | OC[C@H]1O[C@@H]2O[C@H]3[C@H](O)[C@@H](O)[C@@H](O[C@H]4[C@H](O)[C@@H](O)[C@@H](O[C@H]5[C@H](O)[C@@H](O)[C@@H](O[C@H]6[C@H](O)[C@@H](O)[C@@H](O[C@H]7[C@H](O)[C@@H](O)[C@@H](O[C@H]8[C@H](O)[C@@H](O)[C@@H](O[C@H]1[C@H](O)[C@H]2O)O[C@@H]8CO)O[C@@H]7CO)O[C@@H]6CO)O[C@@H]5CO)O[C@@H]4CO)O[C@@H]3CO [BETADEX] | Not Active | Not Active | Not Active | Not Active | Not Active | Not Active | Not Active | Not Active | Not Active | Not Active |  |  |  | 
11 | O=C(O)CO [GLYCOLIC ACID] | Not Active | Not Active | Not Active | Not Active | Not Active | Not Active | Not Active | Not Active | Not Active | Not Active |  |  |  | 
12 | COc1cc(NC(C)CCCN)c2ncccc2c1 (configuration not stated) [PRIMAQUINE] | Not Active | Not Active | Not Active | Not Active | Not Active | Not Active | Not Active | Not Active | Not Active | Not Active |  |  |  | 
13 | COc1ccc(Cl)cc1C(=O)NCCc1ccc(S(=O)(=O)NC(=O)NC2CCCCC2)cc1 [GLYBURIDE] | Not Active | Not Active | Not Active | Not Active | Not Active | Not Active | Not Active | Not Active | Not Active | Not Active |  |  |  | 
14 | CCO [ALCOHOL] | Not Active | Not Active | Not Active | Not Active | Not Active | Not Active | Not Active | Not Active | Not Active | Not Active |  |  |  | 
15 | CC(C)(c1ccc(O)cc1)c1ccc(O)cc1 [BISPHENOL A] | Not Active | Not Active | Not Active | Not Active | Not Active | Not Active | Not Active | Not Active | Not Active | Not Active |  |  |  | 
16 | CC12CCC(CC1=O)C2(C)C (configuration not stated) [CAMPHOR] | Not Active | Not Active | Not Active | Not Active | Not Active | Not Active | Not Active | Not Active | Not Active | Not Active |  |  |  | 
17 | O=C(O)c1ccccc1 [BENZOIC ACID] | Not Active | Not Active | Not Active | Not Active | Not Active | Not Active | Not Active | Not Active | Not Active | Not Active |  |  |  | 
18 | Oc1ncnc2[nH]ncc12 [ALLOPURINOL] | Not Active | Not Active | Not Active | Not Active | Not Active | Not Active | Not Active | Not Active | Not Active | Not Active |  |  |  | 
19 | NC(=O)CN1CCCC1=O | Not Active | Not Active | Not Active | Not Active | Not Active | Not Active | Not Active | Not Active | Not Active | Not Active |  |  |  | 
20 | CCN1CCN(C(=O)N[C@@H](C(=O)N[C@@H]2C(=O)N3[C@@H]2SC(C)(C)[C@@H]3C(=O)O)c2ccccc2)C(=O)C1=O [PIPERACILLIN] | Not Active | Not Active | Not Active | Not Active | Not Active | Not Active | Not Active | Not Active | Not Active | Not Active |  |  |  | 
21 | CCCCCCNC(=O)n1cc(F)c(=O)[nH]c1=O [CARMOFUR] | Not Active | Not Active | Not Active | Not Active | Not Active | Not Active | Not Active | Not Active | Not Active | Not Active |  |  |  | 
22 | CCN(CCO)CCCC(C)Nc1ccnc2cc(Cl)ccc12 (configuration not stated) [HYDROXYCHLOROQUINE] | Not Active | Not Active | Not Active | Not Active | Not Active | Not Active | Not Active | Not Active | Not Active | Not Active |  |  |  | 
